Test results reported in US20240132521A1, “COMPOUNDS AND METHODS FOR MODULATING HER2” (Iambic Therapeutics, Inc., priority 2022, published 2024).

Assays:
Assay type in all cases: cell-based
BaF3_HER2WT cells = BaF3_HER2WT cells (Homo sapiens, UniProt P04626); test: Cell growth inhibition assay (CellTiterGlo), BaF3_HER2WT; conditions: 3-day treatment, CellTiterGlo, read-out: Cell growth inhibition activity, HER2 WT
BaF3_HER2YVMA cells = BaF3_HER2YVMA cells (Homo sapiens, UniProt P04626, DUP772-775, cells depend on it); test: Cell growth inhibition assay (CellTiterGlo), BaF3_HER2YVMA; conditions: 3-day treatment, CellTiterGlo, read-out: Cell growth inhibition activity, HER2 - YVMA
BaF3_HER2YVMA cells, sequence (P04626 with tags, fused parts or gaps DUP772-775): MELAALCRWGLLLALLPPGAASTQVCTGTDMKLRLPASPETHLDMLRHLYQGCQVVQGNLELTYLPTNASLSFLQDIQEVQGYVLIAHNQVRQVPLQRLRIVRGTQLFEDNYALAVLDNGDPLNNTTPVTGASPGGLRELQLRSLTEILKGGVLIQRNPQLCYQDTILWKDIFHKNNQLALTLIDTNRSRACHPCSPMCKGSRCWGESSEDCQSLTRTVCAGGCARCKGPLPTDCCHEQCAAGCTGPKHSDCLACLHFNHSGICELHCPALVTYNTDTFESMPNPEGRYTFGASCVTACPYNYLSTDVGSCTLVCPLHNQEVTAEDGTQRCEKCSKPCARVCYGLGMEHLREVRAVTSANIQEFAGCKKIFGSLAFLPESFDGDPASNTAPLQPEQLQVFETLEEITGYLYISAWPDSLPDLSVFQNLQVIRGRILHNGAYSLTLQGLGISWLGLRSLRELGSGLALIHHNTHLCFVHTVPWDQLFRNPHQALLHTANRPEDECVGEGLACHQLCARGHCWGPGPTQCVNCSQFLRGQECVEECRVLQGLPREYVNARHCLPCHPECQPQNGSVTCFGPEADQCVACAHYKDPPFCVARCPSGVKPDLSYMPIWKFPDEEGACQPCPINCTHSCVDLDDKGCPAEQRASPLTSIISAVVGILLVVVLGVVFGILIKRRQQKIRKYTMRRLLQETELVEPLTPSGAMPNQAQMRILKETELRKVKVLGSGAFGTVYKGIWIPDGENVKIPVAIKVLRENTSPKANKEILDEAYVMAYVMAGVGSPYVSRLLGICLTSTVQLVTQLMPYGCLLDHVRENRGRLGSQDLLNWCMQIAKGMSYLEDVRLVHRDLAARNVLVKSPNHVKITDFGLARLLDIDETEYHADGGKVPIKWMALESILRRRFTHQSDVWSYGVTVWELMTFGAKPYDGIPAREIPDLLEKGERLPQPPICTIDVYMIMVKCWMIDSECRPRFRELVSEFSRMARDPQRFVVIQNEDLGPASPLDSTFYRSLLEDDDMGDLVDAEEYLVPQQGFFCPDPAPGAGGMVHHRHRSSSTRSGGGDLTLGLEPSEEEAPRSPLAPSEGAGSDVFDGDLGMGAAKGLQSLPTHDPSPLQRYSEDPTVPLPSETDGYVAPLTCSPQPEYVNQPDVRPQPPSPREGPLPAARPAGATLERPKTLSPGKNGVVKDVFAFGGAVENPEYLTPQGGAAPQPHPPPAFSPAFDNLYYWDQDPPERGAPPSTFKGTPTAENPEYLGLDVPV

BaF3_EGFRWT cells = BaF3_EGFRWT cells (Homo sapiens, UniProt P00533); test: Cell growth inhibition assay (CellTiterGlo), BaF3_EGFRWT; conditions: 3-day treatment, CellTiterGlo, read-out: Cell growth inhibition activity, EGFR WT
BaF3_EGFRWT cells, sequence (P00533 whole entry, change not shown): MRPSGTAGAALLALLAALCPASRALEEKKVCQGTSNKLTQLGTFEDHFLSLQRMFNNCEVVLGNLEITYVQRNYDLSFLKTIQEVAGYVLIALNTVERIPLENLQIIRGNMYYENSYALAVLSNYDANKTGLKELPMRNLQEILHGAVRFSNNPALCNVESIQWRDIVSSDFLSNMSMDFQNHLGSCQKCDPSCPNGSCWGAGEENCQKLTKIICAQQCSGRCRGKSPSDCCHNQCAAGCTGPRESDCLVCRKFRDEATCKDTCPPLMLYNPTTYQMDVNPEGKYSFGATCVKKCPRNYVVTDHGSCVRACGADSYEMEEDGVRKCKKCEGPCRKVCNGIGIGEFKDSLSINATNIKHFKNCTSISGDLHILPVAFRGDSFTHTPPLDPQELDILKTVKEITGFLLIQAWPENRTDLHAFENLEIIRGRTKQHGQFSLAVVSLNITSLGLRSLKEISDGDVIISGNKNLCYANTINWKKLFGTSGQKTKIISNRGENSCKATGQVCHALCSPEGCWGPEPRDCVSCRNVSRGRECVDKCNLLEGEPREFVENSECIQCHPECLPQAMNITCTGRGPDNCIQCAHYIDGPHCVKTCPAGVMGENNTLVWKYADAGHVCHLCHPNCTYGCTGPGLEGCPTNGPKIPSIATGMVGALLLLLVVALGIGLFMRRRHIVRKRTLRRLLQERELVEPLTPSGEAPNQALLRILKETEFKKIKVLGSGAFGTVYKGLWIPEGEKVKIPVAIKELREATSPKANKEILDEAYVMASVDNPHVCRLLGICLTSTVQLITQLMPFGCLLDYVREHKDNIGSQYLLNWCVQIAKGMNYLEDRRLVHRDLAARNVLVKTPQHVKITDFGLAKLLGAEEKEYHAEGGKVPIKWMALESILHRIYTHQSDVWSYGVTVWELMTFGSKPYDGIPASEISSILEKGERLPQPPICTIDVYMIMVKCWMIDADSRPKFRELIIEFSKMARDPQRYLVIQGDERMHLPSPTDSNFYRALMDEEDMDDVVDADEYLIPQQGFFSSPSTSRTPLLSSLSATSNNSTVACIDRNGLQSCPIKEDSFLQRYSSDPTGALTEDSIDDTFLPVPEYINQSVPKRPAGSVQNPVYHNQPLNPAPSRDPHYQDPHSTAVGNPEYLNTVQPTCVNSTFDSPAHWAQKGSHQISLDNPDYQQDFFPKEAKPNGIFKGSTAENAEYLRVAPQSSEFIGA

BaF3_HER2WT cells, sequence (P04626 whole entry, change not shown): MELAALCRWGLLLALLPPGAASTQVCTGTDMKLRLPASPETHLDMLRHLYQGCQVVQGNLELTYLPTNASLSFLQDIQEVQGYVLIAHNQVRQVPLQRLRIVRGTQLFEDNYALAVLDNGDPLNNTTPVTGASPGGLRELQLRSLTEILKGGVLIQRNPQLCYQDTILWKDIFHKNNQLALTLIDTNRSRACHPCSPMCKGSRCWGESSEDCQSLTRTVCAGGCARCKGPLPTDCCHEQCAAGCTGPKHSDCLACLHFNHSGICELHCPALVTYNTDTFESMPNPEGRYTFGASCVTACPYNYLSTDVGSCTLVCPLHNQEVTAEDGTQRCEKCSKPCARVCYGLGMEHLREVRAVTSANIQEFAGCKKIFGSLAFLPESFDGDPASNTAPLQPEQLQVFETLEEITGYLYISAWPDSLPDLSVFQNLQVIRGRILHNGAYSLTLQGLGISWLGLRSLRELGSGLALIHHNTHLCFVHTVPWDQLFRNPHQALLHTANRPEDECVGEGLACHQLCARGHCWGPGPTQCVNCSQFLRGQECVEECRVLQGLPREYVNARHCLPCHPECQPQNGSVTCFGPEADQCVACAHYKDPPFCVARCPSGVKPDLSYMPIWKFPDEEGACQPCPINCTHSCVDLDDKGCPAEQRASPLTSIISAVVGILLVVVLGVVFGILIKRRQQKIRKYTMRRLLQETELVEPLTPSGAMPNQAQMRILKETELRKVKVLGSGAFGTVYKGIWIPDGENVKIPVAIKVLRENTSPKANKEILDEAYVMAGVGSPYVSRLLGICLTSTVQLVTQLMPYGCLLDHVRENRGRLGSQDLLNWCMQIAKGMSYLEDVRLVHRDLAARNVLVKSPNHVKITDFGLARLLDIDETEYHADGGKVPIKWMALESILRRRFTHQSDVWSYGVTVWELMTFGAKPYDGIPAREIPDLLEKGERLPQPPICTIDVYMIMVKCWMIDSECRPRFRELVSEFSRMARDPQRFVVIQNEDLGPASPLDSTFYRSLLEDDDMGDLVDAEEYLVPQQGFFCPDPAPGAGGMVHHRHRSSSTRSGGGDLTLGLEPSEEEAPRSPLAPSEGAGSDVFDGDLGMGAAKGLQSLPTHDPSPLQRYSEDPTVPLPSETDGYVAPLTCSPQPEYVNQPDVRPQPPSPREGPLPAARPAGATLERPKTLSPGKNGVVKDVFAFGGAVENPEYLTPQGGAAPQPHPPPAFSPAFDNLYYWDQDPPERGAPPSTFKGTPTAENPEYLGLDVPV

Work on `Cc1cc(Nc2ncnn3ccc(C4CCN(C(=O)/C=C/C(=O)O)CC4)c23)ccc1Oc1ccn2ncnc2c1` [Example 142, (E)-4-(4-(4-((4-([1,2,4]triazolo[1,5-a]pyridin-7-yloxy)-3-methylphenyl)amino)pyrrolo[2,1-f][1,2,4]triazin-5-yl)piperidin-1-yl)-4-oxobut-2-enoic acid] yielded a GI50 (BaF3_HER2WT cells) of 1500 to 5000 nM, a GI50 (BaF3_HER2YVMA cells) of 1500 to 5000 nM and a GI50 (BaF3_EGFRWT cells) of 1500 to 5000 nM.
`Cc1cc(Nc2ncnn3ccc(C4CCN(C(=O)/C=C/CN)CC4)c23)ccc1Oc1ccn2ncnc2c1` [Example 150, (E)-1-(4-(4-((4-([1,2,4]triazolo[1,5-a]pyridin-7-yloxy)-3-methylphenyl)amino)pyrrolo[2,1-f][1,2,4]triazin-5-yl)piperidin-1-yl)-4-aminobut-2-en-1-one] was tested, and the GI50 (BaF3_HER2WT cells) was 500 to 1500 nM, the GI50 (BaF3_HER2YVMA cells) was 1500 to 5000 nM and the GI50 (BaF3_EGFRWT cells) was 1500 to 5000 nM.
For `CNC/C=C/C(=O)N1CC(c2ccn3ncnc(Nc4ccc(Oc5ccn6ncnc6c5)c(C)c4)c23)C1` [Example 151, (E)-1-(3-(4-((4-([1,2,4]triazolo[1,5-a]pyridin-7-yloxy)-3-methylphenyl)amino)pyrrolo[2,1-f][1,2,4]triazin-5-yl)azetidin-1-yl)-4-(methylamino)but-2-en-1-one], the GI50 (BaF3_HER2WT cells) was less than 200 nM, the GI50 (BaF3_HER2YVMA cells) was less than 200 nM and the GI50 (BaF3_EGFRWT cells) was 1500 to 5000 nM.
Work on `Cc1cc(Nc2ncnn3cc(F)c(C4CCN(C(=O)/C=C/CN(C)C)CC4)c23)ccc1Oc1ccn2ncnc2c1` [Example 152, (E)-1-(4-(4-((4-([1,2,4]triazolo[1,5-a]pyridin-7-yloxy)-3-methylphenyl)amino)-6-fluoropyrrolo[2,1-f][1,2,4]triazin-5-yl)piperidin-1-yl)-4-(dimethylamino)but-2-en-1-one] yielded a GI50 (BaF3_HER2WT cells) of less than 200 nM, a GI50 (BaF3_HER2YVMA cells) of less than 200 nM and a GI50 (BaF3_EGFRWT cells) of 1500 to 5000 nM.
Compound `CNC/C=C/C(=O)N1CC(c2ccn3ncnc(Nc4ccc(Oc5ccc6c(c5)ncn6C)c(C)c4)c23)C1` [Example 153, (E)-1-(3-(4-((3-methyl-4-((1-methyl-1H-benzo[d]imidazol-5-yl)oxy)phenyl)amino)pyrrolo[2,1-f][1,2,4]triazin-5-yl)azetidin-1-yl)-4-(methylamino)but-2-en-1-one] has a GI50 (BaF3_HER2WT cells) of 1500 to 5000 nM, a GI50 (BaF3_HER2YVMA cells) of 1500 to 5000 nM and a GI50 (BaF3_EGFRWT cells) of 1500 to 5000 nM.
In the case of `Cc1cc(Nc2ncnn3ccc(C4CCN(C(=O)/C=C/CO)CC4)c23)ccc1Oc1ccn2ncnc2c1` [Example 154, (E)-1-(4-(4-((4-([1,2,4]triazolo[1,5-a]pyridin-7-yloxy)-3-methylphenyl)amino)pyrrolo[2,1-f][1,2,4]triazin-5-yl)piperidin-1-yl)-4-hydroxybut-2-en-1-one], the GI50 (BaF3_HER2WT cells) is reported as less than 200 nM, the GI50 (BaF3_HER2YVMA cells) is reported as less than 200 nM and the GI50 (BaF3_EGFRWT cells) is reported as 1500 to 5000 nM.
`Cc1cc(Nc2ncnn3ccc(C4CN(C(=O)/C=C/CN(C)C)C4)c23)ccc1Oc1ccn2ccnc2c1` [Example 157, (E)-4-(dimethylamino)-1-(3-(4-((4-(imidazo[1,2-a]pyridin-7-yloxy)-3-methylphenyl)amino)pyrrolo[2,1-f][1,2,4]triazin-5-yl)azetidin-1-yl)but-2-en-1-one] gave a GI50 (BaF3_HER2WT cells) of less than 200 nM, a GI50 (BaF3_HER2YVMA cells) of less than 200 nM and a GI50 (BaF3_EGFRWT cells) of 1500 to 5000 nM.
`Cc1cc(Nc2ncnn3ccc(C4CN(C(=O)/C=C/CN(C)C)C4)c23)ccc1Oc1cc2ncnn2cn1` [Example 158, (E)-1-(3-(4-((4-([1,2,4]triazolo[1,5-c]pyrimidin-7-yloxy)-3-methylphenyl)amino)pyrrolo[2,1-f][1,2,4]triazin-5-yl)azetidin-1-yl)-4-(dimethylamino)but-2-en-1-one] gave a GI50 (BaF3_HER2WT cells) of less than 200 nM, a GI50 (BaF3_HER2YVMA cells) of less than 200 nM and a GI50 (BaF3_EGFRWT cells) of 500 to 1500 nM.
Compound `Cc1cc(Nc2ncnn3ccc(C4CN(C(=O)/C=C/C56CCCN5CCC6)C4)c23)ccc1Oc1ccn2ncnc2c1` [Example 159, (E)-1-(3-(4-((4-([1,2,4]triazolo[1,5-a]pyridin-7-yloxy)-3-methylphenyl)amino)pyrrolo[2,1-f][1,2,4]triazin-5-yl)azetidin-1-yl)-3-(tetrahydro-1H-pyrrolizin-7a(5H)-yl)prop-2-en-1-one] has a GI50 (BaF3_HER2WT cells) of less than 200 nM, a GI50 (BaF3_HER2YVMA cells) of less than 200 nM and a GI50 (BaF3_EGFRWT cells) of 1500 to 5000 nM.
With `Cc1cc(Nc2ncnn3ccc(C4CN(C(=O)/C=C\C56CCCN5CCC6)C4)c23)ccc1Oc1ccn2ncnc2c1` [Example 160, (Z)-1-(3-(4-((4-([1,2,4]triazolo[1,5-a]pyridin-7-yloxy)-3-methylphenyl)amino)pyrrolo[2,1-f][1,2,4]triazin-5-yl)azetidin-1-yl)-3-(tetrahydro-1H-pyrrolizin-7a(5H)-yl)prop-2-en-1-one] the GI50 (BaF3_HER2WT cells) was less than 200 nM, the GI50 (BaF3_HER2YVMA cells) was less than 200 nM and the GI50 (BaF3_EGFRWT cells) was 1500 to 5000 nM.
With `Cc1cc(Nc2ncnn3ccc(C4CN(C(=O)/C=C/CN5CC(F)C5)C4)c23)ccc1Oc1ccc2c(c1)ncn2C` [Example 161, (E)-4-(3-fluoroazetidin-1-yl)-1-(3-(4-((3-methyl-4-((1-methyl-1H-benzo[d]imidazol-5-yl)oxy)phenyl)amino)pyrrolo[2,1-f][1,2,4]triazin-5-yl)azetidin-1-yl)but-2-en-1-one] the GI50 (BaF3_HER2WT cells) was less than 200 nM, the GI50 (BaF3_HER2YVMA cells) was less than 200 nM and the GI50 (BaF3_EGFRWT cells) was 1500 to 5000 nM.
Work on `Cc1cc(Nc2ncnn3ccc(C4CCN(C(=O)/C=C/CN5CC(F)C5)CC4)c23)ccc1Oc1ccc2c(c1)ncn2C` [Example 162, (E)-4-(3-fluoroazetidin-1-yl)-1-(4-(4-((3-methyl-4-((1-methyl-1H-benzo[d]imidazol-5-yl)oxy)phenyl)amino)pyrrolo[2,1-f][1,2,4]triazin-5-yl)piperidin-1-yl)but-2-en-1-one] yielded a GI50 (BaF3_HER2WT cells) of 200 to 500 nM, a GI50 (BaF3_HER2YVMA cells) of 500 to 1500 nM and a GI50 (BaF3_EGFRWT cells) of 1500 to 5000 nM.
`Cc1cc(Nc2ncnn3ccc(C4CCN(C(=O)/C=C/CN5CC(F)C5)CC4)c23)ccc1Oc1ccn2ncnc2c1` [Example 163, (E)-1-(4-(4-((4-([1,2,4]triazolo[1,5-a]pyridin-7-yloxy)-3-methylphenyl)amino)pyrrolo[2,1-f][1,2,4]triazin-5-yl)piperidin-1-yl)-4-(3-fluoroazetidin-1-yl)but-2-en-1-one] gave a GI50 (BaF3_HER2WT cells) of less than 200 nM, a GI50 (BaF3_HER2YVMA cells) of less than 200 nM and a GI50 (BaF3_EGFRWT cells) of 1500 to 5000 nM.
For `Cc1cc(Nc2ncnn3ccc(C4CCN(C(=O)/C=C/CN5CCC(F)C5)CC4)c23)ccc1Oc1ccn2ncnc2c1` (stereo not drawn) [Example 164, (E)-1-(4-(4-((4-([1,2,4]triazolo[1,5-a]pyridin-7-yloxy)-3-methylphenyl)amino)pyrrolo[2,1-f][1,2,4]triazin-5-yl)piperidin-1-yl)-4-(3-fluoropyrrolidin-1-yl)but-2-en-1-one], the GI50 (BaF3_HER2WT cells) was less than 200 nM, the GI50 (BaF3_HER2YVMA cells) was less than 200 nM and the GI50 (BaF3_EGFRWT cells) was 1500 to 5000 nM.
For `CO[C@H]1CN(C/C=C/C(=O)N2CC(c3ccn4ncnc(Nc5ccc(Oc6ccc7c(c6)ncn7C)c(C)c5)c34)C2)C[C@H]1OC` [Example 165, (E)-4-((3R,4S)-3,4-dimethoxypyrrolidin-1-yl)-1-(3-(4-((3-methyl-4-((1-methyl-1H-benzo[d]imidazol-5-yl)oxy)phenyl)amino)pyrrolo[2,1-f][1,2,4]triazin-5-yl)azetidin-1-yl)but-2-en-1-one], the GI50 (BaF3_HER2WT cells) was less than 200 nM, the GI50 (BaF3_HER2YVMA cells) was less than 200 nM and the GI50 (BaF3_EGFRWT cells) was 1500 to 5000 nM.
In the case of `CO[C@@H]1CN(C/C=C/C(=O)N2CC(c3ccn4ncnc(Nc5ccc(Oc6ccc7c(c6)ncn7C)c(C)c5)c34)C2)C[C@H]1OC` [Example 166, (E)-4-((3R,4R)-3,4-dimethoxypyrrolidin-1-yl)-1-(3-(4-((3-methyl-4-((1-methyl-1H-benzo[d]imidazol-5-yl)oxy)phenyl)amino)pyrrolo[2,1-f][1,2,4]triazin-5-yl)azetidin-1-yl)but-2-en-1-one], the GI50 (BaF3_HER2WT cells) is reported as less than 200 nM, the GI50 (BaF3_HER2YVMA cells) is reported as less than 200 nM and the GI50 (BaF3_EGFRWT cells) is reported as 1500 to 5000 nM.
With `CO[C@H]1CN(C/C=C/C(=O)N2CCC(c3ccn4ncnc(Nc5ccc(Oc6ccc7c(c6)ncn7C)c(C)c5)c34)CC2)C[C@H]1OC` [Example 167, (E)-4-((3R,4S)-3,4-dimethoxypyrrolidin-1-yl)-1-(4-(4-((3-methyl-4-((1-methyl-1H-benzo[d]imidazol-5-yl)oxy)phenyl)amino)pyrrolo[2,1-f][1,2,4]triazin-5-yl)piperidin-1-yl)but-2-en-1-one] the GI50 (BaF3_HER2WT cells) was less than 200 nM, the GI50 (BaF3_HER2YVMA cells) was less than 200 nM and the GI50 (BaF3_EGFRWT cells) was 1500 to 5000 nM.
Compound `CO[C@@H]1CN(C/C=C/C(=O)N2CCC(c3ccn4ncnc(Nc5ccc(Oc6ccc7c(c6)ncn7C)c(C)c5)c34)CC2)C[C@H]1OC` [Example 168, (E)-4-((3R,4R)-3,4-dimethoxypyrrolidin-1-yl)-1-(4-(4-((3-methyl-4-((1-methyl-1H-benzo[d]imidazol-5-yl)oxy)phenyl)amino)pyrrolo[2,1-f][1,2,4]triazin-5-yl)piperidin-1-yl)but-2-en-1-one] has a GI50 (BaF3_HER2WT cells) of less than 200 nM, a GI50 (BaF3_HER2YVMA cells) of less than 200 nM and a GI50 (BaF3_EGFRWT cells) of 1500 to 5000 nM.
For `CO[C@H]1CN(C/C=C/C(=O)N2CCC(c3ccn4ncnc(Nc5ccc(Oc6ccn7ncnc7c6)c(C)c5)c34)CC2)C[C@H]1OC` [Example 169, (E)-1-(4-(4-((4-([1,2,4]triazolo[1,5-a]pyridin-7-yloxy)-3-methylphenyl)amino)pyrrolo[2,1-f][1,2,4]triazin-5-yl)piperidin-1-yl)-4-((3R,4S)-3,4-dimethoxypyrrolidin-1-yl)but-2-en-1-one], the GI50 (BaF3_HER2WT cells) was less than 200 nM, the GI50 (BaF3_HER2YVMA cells) was less than 200 nM and the GI50 (BaF3_EGFRWT cells) was 1500 to 5000 nM.
`CO[C@@H]1CN(C/C=C/C(=O)N2CCC(c3ccn4ncnc(Nc5ccc(Oc6ccn7ncnc7c6)c(C)c5)c34)CC2)C[C@H]1OC` [Example 170, (E)-1-(4-(4-((4-([1,2,4]triazolo[1,5-a]pyridin-7-yloxy)-3-methylphenyl)amino)pyrrolo[2,1-f][1,2,4]triazin-5-yl)piperidin-1-yl)-4-((3R,4R)-3,4-dimethoxypyrrolidin-1-yl)but-2-en-1-one] was tested, and the GI50 (BaF3_HER2WT cells) was less than 200 nM, the GI50 (BaF3_HER2YVMA cells) was less than 200 nM and the GI50 (BaF3_EGFRWT cells) was 1500 to 5000 nM.
`Cc1cc(Nc2ncnn3ccc(C4(F)CCN(C(=O)/C=C/CN(C)C)CC4)c23)ccc1Oc1ccn2ncnc2c1` [Example 175, (E)-1-(4-(4-((4-([1,2,4]triazolo[1,5-a]pyridin-7-yloxy)-3-methylphenyl)amino)pyrrolo[2,1-f][1,2,4]triazin-5-yl)-4-fluoropiperidin-1-yl)-4-(dimethylamino)but-2-en-1-one] was tested, and the GI50 (BaF3_HER2WT cells) was 1500 to 5000 nM, the GI50 (BaF3_HER2YVMA cells) was 1500 to 5000 nM and the GI50 (BaF3_EGFRWT cells) was 1500 to 5000 nM.
